Measured values as given in US20060286047A1, “Methods for determining the sequence of a peptide motif having affinity for a substrate” (priority 2005, published 2006).

Tests used:
[1] = ELISA assay of peptide motif binding to bleached hair; parameters: species or system human; Binding Activity % Relative to Control: concentration or dose not given beside the values; settings: for Binding Activity % Relative to Control: bleached human hair, biotinylated peptide, streptavidin-HRP/TMB, A450, relative to positive control SEQ ID NO:124; for binding activity to hair compared to the positive control peptide (in words): bleached hair ELISA, summary of Table 7
Procedure: The hair samples used were 6-inch (15.2 cm) medium brown human hairs obtained from International Hair Importers and Products (Bellerose, N.Y.). The hairs were placed in 90% isopropanol for 30 min at room temperature and then washed 5 times for 10 min each with deionized water. The hairs were air-dried overnight at room temperature. To prepare the bleached hair samples, the air-dried medium brown human hairs were placed in 6% H2O2, which was adjusted to pH 10.2 with ammonium hydroxide, for 10 min at room temperature and then washed 5 times for 10 min each with deionized water. The hairs were air-dried overnight at room temperature.
Ten hair-binding peptide motifs from Table 6 were selected for testing of their hair-binding activity. The ten peptides were synthesized by SynPep (Dublin, Calif.). […] The control peptide had the sequence TPPELLHGDPRS, given as SEQ ID NO:124. The peptides were biotinylated by adding a biotinylated lysine residue at the C-terminus of the amino acid binding sequences for detection purposes and an amidated cysteine was added to the C-terminus of the sequence.
Bleached hair samples were prepared and placed into wells of a custom 24-well biopanning apparatus, as described in Example 1. The hair was blocked with blocking buffer (SuperBlock™ from Pierce Biotechnology, Inc., Rockford, Ill.) at room temperature for 1 h, followed by six washes with TBST-0.5%, 2 min each, at room temperature. Various concentrations of biotinylated, binding peptide were added to each well, incubated for 15 min at 37° C., and washed six times with TBST-0.5%, 2 min each, at room temperature. Then, streptavidin-horseradish peroxidase (HRP) conjugate (Pierce Biotechnology, Inc.) was added to each well (1.0 μg per well), and incubated for 1 h at room temperature. After the incubation, the conjugate solution was removed and the wells were washed six times with TBST-0.5%, 2 min each, at room temperature. TMB substrate (200 μL) (Pierce Biotechnology, Inc.) was added to each well and the color was allowed to develop for between 5 to 30 min, typically for 10 min, at room temperature. Then, stop solution (200 μL of 2 M H2SO4) was added to each well and the solutions were transferred to a 96-well plate and the A450 was measured using a microplate spectrophotometer (Molecular Devices, Sunnyvale, Calif.). The resulting absorbance values, were used to calculate the binding activity of each hair-binding peptide motif relative to the positive control sequence.

[2] = control peptide as identified by Huang et al.; cited from earlier work

Row | Substance | Binding Activity % Relative to Control [1] [%] | binding activity to hair compared to the positive control peptide (in words) [1] | affinity for hair (in words) [2]
1 | 90 (PLSTY; Hair-binding peptide motif) [compound 90] | 53.0 | – | –
2 | 92 (TLGQA; Hair-binding peptide motif) [compound 92] | 86.6 | – | –
3 | 95 (YSPIK; Hair-binding peptide motif) [compound 95] | 1.9 | low binding activity | –
4 | 97 (FPPVP; Hair-binding peptide motif) [compound 97] | 81.5 | – | –
5 | 98 (RPPLD; Hair-binding peptide motif) [compound 98] | 90.3 | comparable to or greater than that of the positive control peptide | –
6 | 99 (QPLSV; Hair-binding peptide motif) [compound 99] | 84.6 | – | –
7 | 119 (SNTTPSPSP; Hair-binding peptide motif) [compound 119] | 94.5 | comparable to or greater than that of the positive control peptide | –
8 | 120 (THPLSNTT; Hair-binding peptide motif) [compound 120] | 88.3 | – | –
9 | 121 (SPIKRPPLS; Hair-binding peptide motif) [compound 121] | 4.4 | low binding activity | –
10 | 123 (RLLRLLRLLRLL; Hair-binding peptide motif) [compound 123] | 127.1 | comparable to or greater than that of the positive control peptide | –
11 | 124 (TPPELLHGDPRS; Control hair-binding peptide) [compound 124] | 100.0 | – | high affinity for hair
